Measured values as given in paper PMC12040169 (PLOS Biology, 2025).

Experiment: in vitro
Settings: human, hela cells, % viability

Row | SMILES | viability at 28.5 h, 10 µM [%] | viability at 28.5 h, 10 µM (bulk resorufin, single well) [%]
1 | Cc1ccc(S(=O)(=O)Nc2ccccc2CNc2ccccn2)cc1 [CBK264198] | 91.9 | –
2 | COc1ccc(C)cc1NC(=O)CCN1CCN(CCO)CC1 [CBK264199] | 97.4 | –
3 | Cc1ccc(OCC(=O)N2CCN(S(=O)(=O)c3ccc4ccccc4c3)CC2)cc1 [CBK264200] | 115 | –
4 | Cc1nc(SCc2ccccc2)nc(O)c1CC(=O)O [CBK264203] | 96.8 | –
5 | CCCCc1cc(=O)oc2cc(OCC(=O)O)ccc12 [CBK264205] | 99.4 | –
6 | COc1cccc(OCC(=O)Nc2ccc(Cl)cc2C(=O)O)c1 [CBK264208] | 105 | –
7 | O=C(O)C1CC=CCC1C(=O)NCc1ccc2c(c1)OCO2 (stereo not drawn) [CBK264209] | 96.4 | –
8 | N=c1c2c3c(sc2ncn1CCCn1ccnc1)CCCC3 [CBK264211] | 95.5 | –
9 | O=C(CSc1nnc(-c2cccc(Br)c2)o1)Nc1cccc([N+](=O)[O-])c1 [CBK264212] | 101 | –
10 | O=C(O)CCSc1nc2ccccc2n1-c1ccccc1 [CBK264215] | 100 | –
11 | COc1ccc(C)cc1NC(=O)CCN1CCN(C)CC1 [CBK264216] | 102 | –
12 | O=C(CSc1ccc(Cl)cc1)Nc1cc(Cl)ccc1C(=O)O [CBK264217] | 115 | –
13 | COc1ccccc1N1CCN(CCC(=O)Nc2ccc(Br)c(C)c2)CC1 [CBK264218] | 93.6 | –
14 | COc1cc(CN2CCN(Cc3ccccc3F)CC2)cc(OC)c1O [CBK264219] | 95.9 | –
15 | CCOC(=O)N1CCN(CCC(=O)Nc2ccc3c(c2)CCC3)CC1 [CBK264220] | 111 | –
16 | Cc1cccc(OCC(=O)N2CCN(S(=O)(=O)c3ccc([N+](=O)[O-])cc3)CC2)c1 [CBK264221] | 89.9 | –
17 | O=C(/C=C/c1c[nH]c2ccccc12)c1ccc(C(=O)/C=C/c2c[nH]c3ccccc23)cc1 [CBK264224] | 106 | –
18 | CC(C)OC(=O)COc1ccc2c(=O)c(Oc3ccccc3Br)coc2c1 [CBK264226] | 94 | –
19 | O=C(c1cccnc1)N1CCN(S(=O)(=O)c2ccccc2[N+](=O)[O-])CC1 [CBK264227] | 97 | –
20 | O=C(O)CCSc1nc(-c2ccccc2)c(-c2ccccc2)[nH]1 [CBK264228] | 109 | –
21 | O=[N+]([O-])c1ccccc1S(=O)(=O)N1CCN(S(=O)(=O)Cc2ccccc2)CC1 [CBK264230] | 96.9 | –

Row | SMILES | viability at 28.5 h, 10 µM [%] | viability at 28.5 h, 10 µM (bulk resorufin, single well) [%]
22 | Cc1ccc(C)c(NC(=O)C(Cc2ccccc2)N2C(=O)c3cc(Cl)c(Cl)cc3C2=O)c1 (stereo not drawn) [CBK264232] | 109 | –
23 | CC(=O)Nc1ccc(S(=O)(=O)N2CCN(C(=O)COc3ccc(Br)cc3)CC2)cc1 [CBK264234] | 94.1 | –
24 | O=C(CCCOc1ccc(Cl)cc1Cl)Nc1c[nH]c(=O)[nH]c1=O [CBK264235] | 113 | –
25 | Cc1ccc(NC(=O)C(=O)NCCCn2ccnc2)cc1Cl [CBK264238] | 92.2 | –
26 | CCCS(=O)(=O)N1CCN(C(=O)c2cccnc2)CC1 [CBK264239] | 93.8 | –
27 | CC(CCc1ccccc1)N1CCN(S(=O)(=O)c2ccc3ccccc3c2)CC1 (stereo not drawn) [CBK264240] | 104 | –
28 | O=C(CN1CCN(Cc2ccc3c(c2)OCO3)CC1)Nc1ccc(Cl)cc1C(=O)c1ccccc1 [CBK264241] | 103 | –
29 | Cc1ccc(S(=O)(=O)N2CCN(Cc3cc(Br)ccc3O)CC2)cc1 [CBK264242] | 98.5 | –
30 | O=C(CN1CCOCC1)Nc1ccc(NC(=O)CN2CCOCC2)c(Cl)c1 [CBK264243] | 112 | –
31 | COc1ccc(Nc2nnc(-c3ccc(C(N)=O)cc3)c3ccccc23)cc1 [CBK264246] | 92.7 | –
32 | CC1CCN(Cn2nc(COc3ccccc3)n(-c3ccccc3)c2=S)CC1 [CBK264247] | 97.3 | –
33 | CCn1c2ccccc2c2cc(CN3CCN(S(=O)(=O)c4ccc(NC(C)=O)cc4)CC3)ccc21 [CBK264248] | 94.1 | –
34 | Cc1ccc(-c2nc(Nc3ccc(Br)cc3)sc2CC(=O)O)cc1 [CBK264251] | 101 | –
35 | COc1cc(C=O)ccc1OC(=O)c1cn(-c2ccccc2)nc1-c1cccnc1 [CBK264255] | 89.6 | –
36 | O=C(O)c1ccc(CNC(=O)c2ccc3c(c2)C(=O)N(CC2CCCO2)C3=O)cc1 (stereo not drawn) [CBK264256] | 98.4 | –
37 | O=C1NC(=S)NC(=O)C1=Cc1ccc(OCc2ccccc2F)c(Br)c1 [CBK264257] | – | 97.7
38 | Cc1ccc(OCC(=O)N2CCN(S(=O)(=O)c3ccccc3[N+](=O)[O-])CC2)cc1 [CBK264260] | 98.5 | –
39 | O=C(CCN1CCN(CCO)CC1)Nc1ccc2c(c1)CCC2 [CBK264262C] | 93.2 | –
40 | COc1ccc(C(NC(=O)C2CC=CCC2C(=O)O)c2ccccc2)cc1 (stereo not drawn) [CBK264264] | 91.6 | –
41 | CC(=O)Nc1ccc(S(=O)(=O)N2CCN(C(=O)COc3ccc(C)cc3)CC2)cc1 [CBK264268] | 91 | –
42 | O=C(COc1ccc2ccccc2c1)N1CCN(S(=O)(=O)c2ccccc2[N+](=O)[O-])CC1 [CBK264271] | 91.8 | –

Row | SMILES | viability at 28.5 h, 10 µM [%] | viability at 28.5 h, 10 µM (bulk resorufin, single well) [%]
43 | COc1ccccc1N1C(=O)c2ccc(C(=O)Nc3cc([N+](=O)[O-])ccc3O)cc2C1=O [CBK264272] | 95.3 | –
44 | CN(C)CCOC(=O)c1ccc(S(=O)(=O)N(C)C)o1 [CBK264273C] | 100 | –
45 | COc1cc(CN2CCN(Cc3cccnc3)CC2)cc(OC)c1O [CBK264274G] | 102 | –
46 | CCOC(=O)C1CCCN(CCC(=O)Nc2cccc(F)c2)C1 (stereo not drawn) [CBK264275C] | 107 | –
47 | O=C(COc1ccc2ccccc2c1)N1CCN(S(=O)(=O)c2ccc([N+](=O)[O-])cc2)CC1 [CBK264277] | 98 | –
48 | CC(=O)Nc1ccc(S(=O)(=O)N2CCN(C(=O)c3cccnc3)CC2)cc1 [CBK264279] | 96.5 | –
49 | O=C(CCN1CCc2ccccc2C1)Nc1cccc(F)c1 [CBK264282] | 103 | –
50 | O=[N+]([O-])c1ccccc1S(=O)(=O)N1CCN(Cc2cccc(Oc3ccccc3)c2)CC1 [CBK264283] | 98.9 | –
51 | CCOC(=O)C1CCCN(CCC(=O)Nc2cc(C)cc(C)c2)C1 (stereo not drawn) [CBK264284] | 100 | –
52 | Cc1ccc(-c2nc(Nc3ccc(F)cc3)sc2CC(=O)O)cc1 [CBK264286] | 89.4 | –
53 | CCCS(=O)(=O)N1CCN(S(=O)(=O)c2ccc(NC(C)=O)cc2)CC1 [CBK264288] | 96.6 | –
54 | CCS(=O)(=O)N1CCN(S(=O)(=O)c2ccccc2[N+](=O)[O-])CC1 [CBK264289] | 99 | –
55 | Cc1oc(CSCc2cc(C(=O)O)c(C)o2)cc1C(=O)O [CBK264291] | 90.7 | –
56 | CC(=O)Nc1ccc(S(=O)(=O)N2CCN(c3ccc(C(F)(F)F)cc3[N+](=O)[O-])CC2)cc1 [CBK264293] | 93.9 | –
57 | O=C(COc1ccc(-c2ccccc2)cc1)N1CCN(S(=O)(=O)c2ccc([N+](=O)[O-])cc2)CC1 [CBK264297] | 106 | –
58 | COc1cc(/C=C2\C(=O)NC(=O)N(c3ccc(O)cc3)C2=O)cc(I)c1O [CBK264298] | – | 114
59 | COc1ccc(-c2nn(CN3CCC(C(N)=O)CC3)c(=S)n2-c2ccccc2)cc1OC [CBK264299] | 91.8 | –
60 | CSc1ccc(CN2CCN(S(=O)(=O)Cc3ccccc3)CC2)cc1 [CBK264301G] | 94.2 | –
61 | COc1ccc(OC)c(CN2CCN(CCCc3ccccc3)CC2)c1 [CBK264304] | 100 | –
62 | O=[N+]([O-])c1ccccc1CN1CCN(Cc2cccc(Oc3ccccc3)c2)CC1 [CBK264307] | 91.3 | –
63 | O=C(Nc1ccc2nsnc2c1NC(=O)c1ccc2nsnc2c1)c1ccc2nsnc2c1 [CBK264309] | 95.9 | –

Row | SMILES | viability at 28.5 h, 10 µM [%] | viability at 28.5 h, 10 µM (bulk resorufin, single well) [%]
64 | O=[N+]([O-])c1ccc(CN2CCN(C3CCN(Cc4ccccc4)CC3)CC2)cc1 [CBK264310G] | 98.5 | –
65 | O=[N+]([O-])c1ccccc1S(=O)(=O)N1CCN(S(=O)(=O)c2ccc(Cl)cc2)CC1 [CBK264311] | 98.6 | –
66 | COc1ccccc1N1CCN(CCC(=O)Nc2ccccc2F)CC1 [CBK264313] | 106 | –
67 | COc1ccc(N2C(=O)/C(=C/c3cc(C)n(-c4cccc(C(=O)O)c4C)c3C)C(=O)NC2=S)cc1 [CBK264315] | – | 96.6
68 | O=C(CCN1CCN(CCO)CC1)Nc1ccc(F)c(F)c1 [CBK264316] | 100 | –
69 | Cc1cc(/C=C2/C(=N)N3N=C(Cc4ccccc4)SC3=NC2=O)c(C)n1-c1ccccc1 [CBK264318] | 100 | –
70 | CCCCC1=NN2C(=N)/C(=C/c3cn(Cc4ccc([N+](=O)[O-])cc4)c4ccccc34)C(=O)N=C2S1 [CBK264320] | 106 | –
71 | O=C(NCCN1CCOCC1)C1CCN(Cc2ccccc2O)CC1 [CBK264324] | 101 | –
72 | CN1CCN(C(=O)C2CCN(CCCc3ccccc3)CC2)CC1 [CBK264326G] | 96 | –
73 | Cc1cccc(N2CCN(C(=O)C3CCN(Cc4cccc(OCc5ccccc5)c4)CC3)CC2)c1C [CBK264328G] | 94.3 | –
74 | Cc1ccc(S(=O)(=O)N(C)CC(=O)OCC(=O)c2ccccc2)cc1 [CBK264329] | 95.1 | –
75 | O=C(/C=C/c1ccc(Cl)cc1Cl)NC(=S)Nc1ccccc1F [CBK264332] | 108 | –
76 | Cc1cc(C)c2c(O)nc(SCC(=O)c3ccccc3)nc2n1 [CBK264336] | 100 | –
77 | O=c1/c(=C/c2ccncc2)sc2n1CN(c1cccc(F)c1)CN=2 [CBK264340] | 99.2 | –
78 | Cc1ccc(-c2cc(C(=O)O)c3cc4c(C(=O)O)cc(-c5ccc(C)o5)nc4cc3n2)o1 [CBK264342] | 87.4 | –
79 | Cc1c(NC(=S)NC(=O)Cc2ccccc2)cccc1-c1nc2ncccc2o1 [CBK264345] | 118 | –
80 | Cc1ccc(N2CCN(C3=NC(=O)/C(=C\c4ccc(O)c([N+](=O)[O-])c4)S3)CC2)cc1 [CBK264347] | 92.9 | –
81 | COc1ccc(CCNS(=O)(=O)N(C)C)cc1 [CBK264348] | 93 | –
82 | COc1ccc(C(=O)CSc2nnc(C)[nH]2)cc1[N+](=O)[O-] [CBK264350] | 95.5 | –
83 | CC(=O)Nc1ccc(N(CC(O)Cn2c3ccccc3c3ccccc32)S(C)(=O)=O)cc1 (stereo not drawn) [CBK264352] | 96.7 | –
84 | CC1(C)Cc2c(sc(NC(=O)Cc3ccccc3)c2C(=O)O)CO1 [CBK264354] | 110 | –
